Data published in patent US12624017B2, “Salt form of isoquinolinone type compound as rock inhibitor and preparation method therefor” (GUANGZHOU OCUSUN OPHTHALMIC BIOTECHNOLOGY CO., LTD., priority 2020, dated 2026).

Experiments:
Assay type in all cases: in vivo, New Zealand white rabbits
[1] = tested on: New Zealand rabbits with normal intraocular pressure; test: Intraocular pressure reduction, normal intraocular pressure, Day 1 (Operation II); settings: 4 mg/mL in right eye, Day 1; for Change in intraocular pressure: vs negative controls
Text: An intraocular pressure reduction effect and potential ocular toxicity of the compound of formula (I) were inspected with rabbits with normal intraocular pressure by repeated administration of eye drops for 14 days.
Male New Zealand white rabbits, aged 97 to 127 days, weighted 2.6-3.5 kg, purchased from Pizhou Oriental Breeding Co., Ltd.
(§1) 42 male New Zealand white rabbits were randomly grouped into 7 groups according to body weights, 6 rabbits/group. Among the animals in Groups 1-7, the left eye was administrated dropwise with normal saline, and the right eye was administrated dropwise with a solvent/control/test article in an administration volume of 50 μL/eye respectively, once a day for 14 consecutive days, and the day of first administration was recorded as Day 1. The intraocular pressures of the animals were measured before administration on Day 1, as well as at 1 h, 2 h, 4 h, 6 h, 8 h and 10 h after administration on Day 1 (Table 10).

[2] = tested on: New Zealand rabbits suffered with acute intraocular hypertension; test: Intraocular pressure reduction test in acute intraocular hypertension model; settings: for Intraocular pressure in left eye: 4 mg/mL group, left eye (solvent only); for Intraocular pressure in right eye: 4 mg/mL, 50 μL, right eye (modelled, dosed)
Text: Acute intraocular hypertension was induced for rabbits by injection of a viscoelastic agent into the anterior chamber, and the effects of ocular pressure reduction of the compound of formula (I) were inspected by administration of eye drops at different concentrations.
Male New Zealand white rabbits, aged 97 to 127 days, weighted 2.5 to 3.4 kg, purchased from Pizhou Oriental Breeding Co., Ltd.
50 male New Zealand white rabbits were randomly divided into 5 groups according to body weight, 10 rabbits/group. The anterior chambers of the right eyes of animals in Groups 1 to 5 were injected with medical sodium hyaluronate gel in a single dose, 100 μL/eye, to induce ocular hypertension in the animals. In 5 to 15 min after molding, the right eye was administrated dropwise with the solvent, K-115, and the test article (compounds of formula (I) of different concentrations), and the left eye was administrated dropwise with the solvent, 50 μL/eye; and the intraocular pressures of the animals in both eyes were measured before administration, as well as at 2, 4, 6, 8, and 10 h after administration, respectively.

[3] = tested on: New Zealand rabbits with normal intraocular pressure; test: Eye irritation response detection with hand-held slit lamp, 14 days eye drops; settings: 4 mg/mL; 14 consecutive days; 50 μl/eye/day
Procedure: as §1
Animals were subjected to eye irritation response detection and fluorescein sodium detection (scored according to scoring criteria) in both eyes with a hand-held slit lamp before the start of test (Day −2/Day −1), before daily administration (Day 1 to Day 14), and at 1 h, 2 h, 4 h, 24 h, 48 h, and 72 h after the last administration (Day 14).
Animals were subjected to eye irritation response detection in both eyes with a handheld slit lamp on Day −2 to Day −1 before the start of test, before first administration every day (Day 1 to Day 14), and at 1 h, 2 h, 4 h, 24 h, 48 h, and 72 h after the last administration. The scoring criteria were as follows: […]

C[C@H]1CNCCCN1S(=O)(=O)c1cccc2cncc(F)c12 [K-115, reference compound]
Average intraocular pressure in both eyes ([1]; 1 h after administration): 5.50 mmHg
Change in intraocular pressure ([1]; 1 h after administration): −3.39 mmHg
Average intraocular pressure in both eyes ([1]; 2 h after administration): 7.06 mmHg
Change in intraocular pressure ([1]; 2 h after administration): −2.50 mmHg
Average intraocular pressure in both eyes ([1]; 4 h after administration): 9.00 mmHg
Change in intraocular pressure ([1]; 4 h after administration): −0.89 mmHg
Average intraocular pressure in both eyes ([1]; 6 h after administration): 9.17 mmHg
Change in intraocular pressure ([1]; 6 h after administration): −1.61 mmHg
Average intraocular pressure in both eyes ([1]; 8 h after administration): 10.61 mmHg
Change in intraocular pressure ([1]; 8 h after administration): 0.23 mmHg
Average intraocular pressure in both eyes ([1]; 10 h after administration): 12.33 mmHg
Change in intraocular pressure ([1]; 10 h after administration): 0.17 mmHg
Average intraocular pressure in both eyes ([1]; before administration): 10.17 mmHg
Change in intraocular pressure ([1]; before administration): 0.83 mmHg
Intraocular pressure in left eye ([2]; 2 h after administration): 6.50 mmHg
Intraocular pressure in left eye ([2]; 4 h after administration): 8.54 mmHg
Intraocular pressure in left eye ([2]; 6 h after administration): 11.40 mmHg
Intraocular pressure in left eye ([2]; 8 h after administration): 13.20 mmHg
Intraocular pressure in left eye ([2]; 10 h after administration): 13.37 mmHg
Intraocular pressure in left eye ([2]; before administration): 11.80 mmHg
Intraocular pressure in right eye ([2]; 2 h after administration): 8.20 mmHg
Intraocular pressure in right eye ([2]; 4 h after administration): 11.27 mmHg
Intraocular pressure in right eye ([2]; 6 h after administration): 15.07 mmHg
Intraocular pressure in right eye ([2]; 8 h after administration): 15.57 mmHg
Intraocular pressure in right eye ([2]; 10 h after administration): 16.47 mmHg
Intraocular pressure in right eye ([2]; before administration): 11.77 mmHg
Eye irritation (conclusion) [3]: no irritation
